Structures can show the parent of a compound that is named as a salt. Where two headings read alike, the source gives them in different places.
Experiments:
TrkB [1] = target: T1, TrkB (Rattus norvegicus, UniProt Q63604); assay: biochemical; type: binding; conditions: for displacement of ^3H-LSD from TrkB: 1 nM to 10 µM of drug; for Bmax (specific binding with Hill slope, best-fit) / h (Hill slope, best-fit): ext fig 1f, competition curve, n=5
T1 construct: expressed in transfected cells; host or cells: HEK293T

[2] = system: dendritic arbor complexity of neuronal cultures; assay: Dendritogenesis (Sholl analysis) in neuronal cultures (WT and Y433F^+/−); type: cell-based, mouse; conditions: for Sholl analysis, Mean at distance from soma: fig 6j
Experimental: In a separate set of experiments to study the effects of extracellular BDNF and 5-HT2A activation, cultures were also pretreated for 10 min with TrkB.FC (200 ng ml^−1) or M100907 (100 nM), respectively. Similar to treatment with the psychedelics, TrkB.FC and M100907 pretreatments were administered in cumulative doses and remained in the medium for the rest of the experiment. At DIV7, neurons were pre-incubated for 1 h with […] MgCl2 to prevent excitotoxicity, then neurons were transfected for the heterologous expression of mCherry. To minimize any possible interference of the transfection protocol upon the drug effect, transfection was done in the morning while treatment with psychedelics was always added in the evening. Twenty-four hours after transfection, neurons were fixed with 4% PFA for 20 min at room temperature, washed in PBS-T, blocked for 30 min with 3% BSA in PBS-T and incubated with chicken anti-MAP2 (Abcam, ab5392; 1:5,000, 1 h, room temperature). Then, coverslips were washed in PBS-T and incubated with Alexa Fluor 647-conjugated antibody goat anti-chicken (Invitrogen, A-21449; 1:1,000, 1 h, room temperature). Next, coverslips were washed in PBS-T and MilliQ water, and mounted in Dako fluorescence mounting medium (Agilent, S302380-2). Ten optical sections with a Z-step of 1.3 μm were acquired using a Zeiss LSM 710 confocal microscope with a LCI Plan/Neofluar 25×/0.8 lmm Korr DIC M27 objective. In the mCherry channel, the center of the soma was manually assigned and the number of dendritic intersections at fixed distances (every 5 μm) from the soma was automatically counted using the Sholl analysis plugin of ImageJ.

TrkB (WT) dimerization = target: T2, TrkB (WT) dimerization (Rattus norvegicus, UniProt Q63604); assay: Split-luciferase PCA of TrkB dimerization in N2a cells; type: cell-based; conditions: for Group mean (Mean 2; Vehicle:Vehicle = 100), fig 4e: n=48
T2 construct: expressed in transfected cells; host or cells: N2a
Experimental: Ketanserin, M100907 and TRKB.FC were added to the media 10 min before treatment. The PCA method was performed as previously described[11],[75],[76]. Split humanized Gaussia princeps luciferase (hGLuc) was cloned on the C-terminus of the reporter proteins TrkB (WT and Y433F) and lipid raft Fyn. If the reporter proteins that carry complementary halves of the luciferase interact, the enzyme can refold in its functional conformation and, upon addition of its substrate, produce luminescence proportionally to the amount of reporter proteins interacting at a given time. N2a cells were seeded in 96-well plates with opaque walls and transparent bottom (PerkinElmer, ViewPlate 96). Cells were transfected with Lipofectamine 2000 according to the manufacturer’s instructions 24 h post-plating with the PCA pair plasmids: phGLuc(1C)-TrkB(WT) or the mutant phGLuc(1C)-TrkB(Y433F) and phGLuc(2 C)-TrkB(WT) for the dimerization experiments; phGLuc(1C)-lipid raft Fyn and phGLuc(2C)-TrkB(WT) or phGLuc(2C)-TrkB(Y433F) for the lipid raft localization experiments. Forty-eight hours post transfection, cells were treated (40 min, 37 °C) in phenol red-free Dulbecco’s modified Eagle medium without serum. […] The PCA signal was detected with the substrate for the luciferase, native coelenterazine, which was injected into each well directly in the plate reader at a final concentration of […].

[3] = system: spine density of neuronal cultures; assay: Spinogenesis in mature neuronal cultures (WT and Y433F^+/−); type: cell-based, mouse; parameters: 6d: Mean (spinogenesis, spine density) / 6e: Mean (spinogenesis, spine density): unit not given here
Experimental: Spinogenesis experiments were performed similarly to previous studies[12],[13] with modifications. […] In a separate set of experiments to study the effects of extracellular BDNF and 5-HT2A activation, cultures were also pretreated for 10 min with TrkB.FC (200 ng ml^−1) or M100907 (100 nM), respectively. TrkB.FC and M100907 remained in the medium for the rest of the experiment. Twenty-four hours later, coverslips were fixed with 4% PFA, washed with PBS, incubated with blocking buffer (0.1% Triton X-100, 0.05% Tween-20, 10% normal donkey serum, 1% BSA and 0.1% gelatin in PBS) for 1 h at room temperature and then overnight with rabbit anti-MAP2 (Invitrogen, PA5-17646; 1:100) primary antibody at 4 °C. After washing with PBS, coverslips were incubated with CF568-conjugated donkey anti-rabbit (Biotium, 20098; 1:500) for 1 h at room temperature. Another round of PBS washes was followed by incubation with Alexa Fluor 647-conjugated phalloidin (Invitrogen, A22287; 1:40) overnight at 4 °C. Next, coverslips were briefly washed in phosphate buffer (PB) and mounted on slides with ProLong Glass Antifade Mountant (Invitrogen, P36982). We used a Zeiss LSM 880 confocal microscope with an AiryScan GaAsP detector equipped with a PlanApochromat 63×/1.4 NA objective. We used the BP 495–550 + LP 570 AiryScan filter and Zen Black in super-resolution mode for image acquisition. Pinhole size was adapted accordingly, and frame size was set to optimal. Sensors were set to continuous adjustment across the imaging sessions to ensure optimal sensor alignment and signal detection. Raw data were processed into AiryScan images with the autofilter mode on using Zen Blue. Finally, image analysis was performed in ImageJ by experimenters blinded for treatment and genotype. Spines were quantified in 15-µm-long dendrite sections.

TrkB [4] = target: T1, TrkB; assay: Biotin-labeled BDNF binding to immunoprecipitated TrkB; conditions: ext fig 1e, n=4
Experimental: Binding assays were performed as previously described with minor modifications. […] Samples from mouse embryo (E18) brains were also lysed, vortexed, sonicated and centrifuged for binding assays. Plates were then washed with PBS. […] For the competition binding assays with biotinylated R,R-HNK, the amino-biotinylation of R,R-HNK was performed using a commercial kit (Thermo Scientific, EZ-Link NHS-PEG4 Biotinylation Kit, 21455) and the reaction monitored by MS. A mixture of biotinylated R,R-HNK (10 µM) and unlabeled compounds (1 pM to 10 µM) in PBS was added to the 96-well plates containing the immunoprecipitated TrkB and incubated for 1 h at room temperature. […] Luminescence was determined via streptavidin conjugated with horseradish peroxidase (HRP; Thermo Fisher Scientific, 21126; 1:5,000, 1 h at room temperature) in reaction with the Pierce ECL substrate (Thermo Fisher Scientific, 32106). Luminescence from blank wells that contained all reagents but the sample lysates was used to determine nonspecific binding. To obtain the binding curves, results from binding assays were fitted to the equation of specific binding with Hill slope from GraphPad Prism 9.2. To calculate koff values, results were fitted to the equation of dissociation of one phase exponential decay from GraphPad Prism 9.2.

eGFP-tagged TrkB (WT) = target: T3, eGFP-tagged TrkB (WT) (Rattus norvegicus, UniProt Q63604); assay: Microscale thermophoresis (MST) in HEK293T lysates; type: binding; conditions: native (WT) TrkB
T3 construct: expressed in transfected cells; host or cells: HEK293T
Experimental: MST experiments were performed using the Monolith NT.115 (Blue/Red) instrument (NanoTemper Technologies). Lysates of HEK293T cells expressing GFP-tagged TrkB (WT, Y433F, TrkA.TM) were lysed, vortexed, sonicated and centrifuged 24 h after transient transfection and used as a source of fluorescently labeled TrkB, similarly to previously described protocols[11],[45]–[47]. The advantage of this approach is the possibility of studying the proteins in close-to-native conditions. However, the presence of other proteins, lipids, nucleic acids and other components of crude cell lysates can alter the diffusion of biomolecules and therefore binding affinities. High viscosity and background signal typically results in the affinity values being orders of magnitude […] than those of more traditional binding assays. […] The measurements were performed in premium coated capillaries (NanoTemper Technologies, MO-K025) using a LED source with 470 nm and 50% infrared-laser power at 25 °C. Analysis was performed using MO Affinity Analysis 2.3. Results were fitted to specific binding with Hill slope equations from GraphPad Prism 9.2.

[5] = TrkB.FC 200 ng ml^−1 or M100907 100 nM
[6] = treatment alone (other factor Vehicle)

T2 sequence (Q63604 32-821): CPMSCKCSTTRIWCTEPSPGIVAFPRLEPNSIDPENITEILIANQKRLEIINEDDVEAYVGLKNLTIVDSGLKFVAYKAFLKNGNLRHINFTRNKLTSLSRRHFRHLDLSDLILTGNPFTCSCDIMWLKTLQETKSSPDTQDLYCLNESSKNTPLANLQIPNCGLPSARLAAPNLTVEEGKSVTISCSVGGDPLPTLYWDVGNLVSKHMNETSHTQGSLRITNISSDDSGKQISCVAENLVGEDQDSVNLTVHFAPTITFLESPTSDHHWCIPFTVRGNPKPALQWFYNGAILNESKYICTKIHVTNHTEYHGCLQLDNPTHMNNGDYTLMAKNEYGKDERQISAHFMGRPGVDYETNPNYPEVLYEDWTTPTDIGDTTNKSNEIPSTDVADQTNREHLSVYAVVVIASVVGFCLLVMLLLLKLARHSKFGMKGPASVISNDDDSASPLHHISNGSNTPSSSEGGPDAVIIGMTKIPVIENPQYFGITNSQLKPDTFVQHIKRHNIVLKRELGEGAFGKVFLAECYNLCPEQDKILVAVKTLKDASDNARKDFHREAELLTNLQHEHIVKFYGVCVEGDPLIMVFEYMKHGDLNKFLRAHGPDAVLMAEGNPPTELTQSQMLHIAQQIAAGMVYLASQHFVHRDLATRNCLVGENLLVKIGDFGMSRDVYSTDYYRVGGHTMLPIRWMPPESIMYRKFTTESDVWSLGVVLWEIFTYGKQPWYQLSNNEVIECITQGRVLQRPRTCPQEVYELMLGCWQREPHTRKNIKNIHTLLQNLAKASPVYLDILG
T2 sequence (Q63604 32-821): as above
T1 sequence (Q63604 32-821): as above
T3 sequence (Q63604 32-821): as above

CN1C(=O)CN=C(c2ccccc2)c2cc(Cl)ccc21 [diazepam]
displacement of ^3H-LSD from TrkB (TrkB [1]): fail to displace ^3H-LSD
Fit status, one phase exponential decay (TrkB [1]; ext fig 1h): Not converged

CN(C)CCCN1c2ccccc2Sc2ccc(Cl)cc21 [chlorpromazine]
displacement of ^3H-LSD from TrkB (TrkB [1]): fail to displace ^3H-LSD
Fit status, one phase exponential decay (TrkB [1]; ext fig 1h): Interrupted
K (one phase exponential decay, best-fit) (TrkB [1]; ext fig 1h): 6.169
Plateau (one phase exponential decay, best-fit) (TrkB [1]; ext fig 1h): 142318
Span (one phase exponential decay, best-fit) (TrkB [1]; ext fig 1h): -142224

CNC1(c2ccccc2Cl)CCCCC1=O (centres unmarked) [ketamine, Ketamine hydrochloride]
Ki (TrkB [1]): 20.8 ± 8.86 µM
Bmax (specific binding with Hill slope, best-fit) (TrkB [1]): 98.59
h (Hill slope, best-fit) (TrkB [1]): -0.5468

N[C@@]1(c2ccccc2Cl)CCC[C@@H](O)C1=O [R,R-HNK, 2R,6R-hydroxynorketamine]
Ki (TrkB [1]; displacement of ^3H-LSD, read-out: Ki): 0.166 ± 0.0211 µM
Bmax (specific binding with Hill slope, best-fit) (TrkB [1]): 107.6
h (Hill slope, best-fit) (TrkB [1]): -0.8819

TrkB.FC: TrkB receptor bodies that sequester extracellular BDNF
effect of pretreatment on LSD effects on dendritogenesis [2, 5]: prevented LSD effects on dendritogenesis
dendritic arbor complexity, Mean Diff. (Vehicle:vehicle vs. group) ([2]; fig 6i, Bonferroni's multiple comparisons test): 9.033
dendritic arbor complexity, group mean (Mean 2) ([2]; fig 6i, treatment:pretreatment groups, Vehicle:vehicle mean 69.72): 60.69
Sholl analysis, Mean at distance from soma ([2]; distance from soma 10 µm): 6.276
Sholl analysis, Mean at distance from soma ([2]; distance from soma 15 µm): 6.586
Sholl analysis, Mean at distance from soma ([2]; distance from soma 20 µm): 5.414
Sholl analysis, Mean at distance from soma ([2]; distance from soma 25 µm): 4.966
Sholl analysis, Mean at distance from soma ([2]; distance from soma 30 µm): 4.621
Sholl analysis, Mean at distance from soma ([2]; distance from soma 35 µm): 3.655
Sholl analysis, Mean at distance from soma ([2]; distance from soma 40 µm): 3.414
Sholl analysis, Mean at distance from soma ([2]; distance from soma 45 µm): 2.655
Sholl analysis, Mean at distance from soma ([2]; distance from soma 50 µm): 2.724
Sholl analysis, Mean at distance from soma ([2]; distance from soma 55 µm): 2.759
Sholl analysis, Mean at distance from soma ([2]; distance from soma 60 µm): 2.2069
Sholl analysis, Mean at distance from soma ([2]; distance from soma 65 µm): 2.241
Sholl analysis, Mean at distance from soma ([2]; distance from soma 70 µm): 2.172
Sholl analysis, Mean at distance from soma ([2]; distance from soma 75 µm): 1.897
Sholl analysis, Mean at distance from soma ([2]; distance from soma 80 µm): 1.862
Sholl analysis, Mean at distance from soma ([2]; distance from soma 85 µm): 2.034
Sholl analysis, Mean at distance from soma ([2]; distance from soma 90 µm): 1.931
Sholl analysis, Mean at distance from soma ([2]; distance from soma 95 µm): 1.621
Sholl analysis, Mean at distance from soma ([2]; distance from soma 100 µm): 1.655
effect of pretreatment on LSD- and BDNF-induced TrkB dimerization (TrkB (WT) dimerization; ketanserin 100 nM, M100907 100 nM or TrkB.FC 200 ng ml^−1, 10 min before): prevents the effects of LSD and BDNF on TrkB dimerization
Group mean (Mean 2; Vehicle:Vehicle = 100), fig 4e (TrkB (WT) dimerization; [6]): 100
effect of pretreatment on spinogenic effect of LSD [3, 5]: prevented the spinogenic effect of LSD
6e: Mean Diff. (Vehicle:Vehicle vs. treatment), Bonferroni's multiple comparisons test ([3]; substance alone (with vehicle)): -0.45
6e: Mean (spinogenesis, spine density) ([3]; substance alone (with vehicle), Vehicle:Vehicle mean 7.05): 7.5

B1: BDNF: Brain-derived neurotrophic factor (protein, UniProt P23560 19-247, looked up)
Neurotrophic factor BDNF …: APMKEANIRGQGGLAYPGVRTHGTLESVNGPKAGSRGLTSLADTFEHVIEELLDEDQKVRPNEENNKDADLYTSRVMLSSQVPLEPPLLFLLEEYKNYLDAANMSMRVRRHSDPARRGELSVCDSISEWVTAADKKTAVDMSGGTVTVLEKVPVSKGQLKQYFYETKCNPMGYTKEGCRGIDKRHWNSQCRTTQSYVRALTMDSKKRIGWRFIRIDTSCVCTLTIKRGR
Bmax (specific binding with Hill slope, best-fit) (TrkB [4]): 7.546
h (Hill slope, best-fit) (TrkB [4]): 0.8134
Kd (TrkB [4]; read-out: Kd (specific binding with Hill slope, best-fit)): 1.22 µM
binding by MST (eGFP-tagged TrkB (WT)): induces a shift in fluorescence
Group mean (Mean 2; Control:Vehicle = 100), fig 4f (TrkB (WT) dimerization; BDNF 0.1ng/ml, Control (no LSD), n=8): 147.4
Group mean (Mean 2; Vehicle:Vehicle = 100), fig 4e (TrkB (WT) dimerization; [6]): 144.1
Group mean (Mean 2; Vehicle:Vehicle = 100), fig 4e (TrkB (WT) dimerization; with TrkB.FC): 103
